# Reference: patent US10981980B2, “Polypeptide targeting aptamers for characterization, capture, and clinical management of circulating tumor cells” (Counterpoint Biomedica LLC, priority 2016, dated 2021)
# *: point of attachment. FITC = O=C1OC2(c3ccc(O)cc3Oc3cc(O)ccc32)c2ccc(NC(=S)*)cc21; Ahx = NCCCCCC(=O)O
# System: collagen-agarose beads
# Assay: Collagen agarose binding assay
# Conditions: loaded in PBS pH 7.4, stringent washing, 10 column volumes of 1M NaCl in PBST, FIG. 3
# From the text: FIG. 3 is a schematic and a photograph of a collagen agarose binding assay. Apt #1 is an aptamer consisting of SEQ ID NO: 1; Apt #7 is an aptamer consisting of SEQ ID NO: 7; Apt #19 is an aptamer consisting of SEQ ID NO: 19; and Apt #20 is an aptamer consisting of SEQ ID NO: 20. CBD=collagen-binding domain; CBD1=bovine vWF sequence comprising SEQ ID NO: 22; CBD2=human vWF sequence comprising SEQ ID NO: 23. […] Aptamers and reporters were mixed and loaded under mild binding conditions (PBS, pH 7.4), followed by washing with increasing concentrations of salt and/or detergent (PBST, using Tween 20). Stringent washing generally includes 10 column volumes of 1M NaCl in PBST, pH 7.4).
row,binding to collagen-agarose beads,Substance
1,bind tightly,acetyl-VNTANSTGGSGARRGVRVAWREPGRMELNMPHGGSGK(FITC)-amide (Ac-VNTANSTGGSGARRGVRVAWREPGRMELNMPHGGSGK(FITC)-NH2; SMILES CSCC[C@H](NC(=O)[C@H](CCCNC(=N)N)NC(=O)CNC(=O)[C@@H]1CCCN1C(=O)[C@H](CCC(=O)O)NC(=O)[C@H](CCCNC(=N)N)NC(=O)[C@H](Cc1c[nH]c2ccccc12)NC(=O)[C@H](C)NC(=O)[C@@H](NC(=O)[C@H](CCCNC(=N)N)NC(=O)[C@@H](NC(=O)CNC(=O)[C@H](CCCNC(=N)N)NC(=O)[C@H](CCCNC(=N)N)NC(=O)[C@H](C)NC(=O)CNC(=O)[C@H](CO)NC(=O)CNC(=O)CNC(=O)[C@@H](NC(=O)[C@H](CO)NC(=O)[C@H](CC(N)=O)NC(=O)[C@H](C)NC(=O)[C@@H](NC(=O)[C@H](CC(N)=O)NC(=O)[C@@H](NC(C)=O)C(C)C)[C@@H](C)O)[C@@H](C)O)C(C)C)C(C)C)C(=O)N[C@@H](CCC(=O)O)C(=O)N[C@@H](CC(C)C)C(=O)N[C@@H](CC(N)=O)C(=O)N[C@@H](CCSC)C(=O)N1CCC[C@H]1C(=O)N[C@@H](Cc1c[nH]cn1)C(=O)NCC(=O)NCC(=O)N[C@@H](CO)C(=O)NCC(=O)N[C@@H](CCCCNC(=S)Nc1ccc2c(c1)C(=O)OC21c2ccc(O)cc2Oc2cc(O)ccc21)C(N)=O) [Aptamer #7]
2,bind tightly,acetyl-RRGVRVAWREPGRMELNMPHGGSGK(FITC)-amide (Ac-RRGVRVAWREPGRMELNMPHGGSGK(FITC)-NH2; SMILES CSCC[C@H](NC(=O)[C@H](CCCNC(=N)N)NC(=O)CNC(=O)[C@@H]1CCCN1C(=O)[C@H](CCC(=O)O)NC(=O)[C@H](CCCNC(=N)N)NC(=O)[C@H](Cc1c[nH]c2ccccc12)NC(=O)[C@H](C)NC(=O)[C@@H](NC(=O)[C@H](CCCNC(=N)N)NC(=O)[C@@H](NC(=O)CNC(=O)[C@H](CCCNC(=N)N)NC(=O)[C@H](CCCNC(=N)N)NC(C)=O)C(C)C)C(C)C)C(=O)N[C@@H](CCC(=O)O)C(=O)N[C@@H](CC(C)C)C(=O)N[C@@H](CC(N)=O)C(=O)N[C@@H](CCSC)C(=O)N1CCC[C@H]1C(=O)N[C@@H](Cc1c[nH]cn1)C(=O)NCC(=O)NCC(=O)N[C@@H](CO)C(=O)NCC(=O)N[C@@H](CCCCNC(=S)Nc1ccc2c(c1)C(=O)OC21c2ccc(O)cc2Oc2cc(O)ccc21)C(N)=O) [Aptamer #20]

row,Substance,binding to collagen-agarose beads
1,acetyl-STRSVSSSSYRRMFGGPGTASK(FITC)-amide (Ac-STRSVSSSSYRRMFGGPGTASK(FITC)-NH2; SMILES CSCC[C@H](NC(=O)[C@H](CCCNC(=N)N)NC(=O)[C@H](CCCNC(=N)N)NC(=O)[C@H](Cc1ccc(O)cc1)NC(=O)[C@H](CO)NC(=O)[C@H](CO)NC(=O)[C@H](CO)NC(=O)[C@H](CO)NC(=O)[C@@H](NC(=O)[C@H](CO)NC(=O)[C@H](CCCNC(=N)N)NC(=O)[C@@H](NC(=O)[C@H](CO)NC(C)=O)[C@@H](C)O)C(C)C)C(=O)N[C@@H](Cc1ccccc1)C(=O)NCC(=O)NCC(=O)N1CCC[C@H]1C(=O)NCC(=O)N[C@H](C(=O)N[C@@H](C)C(=O)N[C@@H](CO)C(=O)N[C@@H](CCCCNC(=S)Nc1ccc2c(c1)C(=O)OC21c2ccc(O)cc2Oc2cc(O)ccc21)C(N)=O)[C@@H](C)O) [Aptamer #9],bind tightly

# Target: purified recombinant His-tagged VIM (Homo sapiens, UniProt P08670)
# Assay: IMAC pull-down / comparative evaluation of vimentin-binding aptamers (net fluorescent signal with and without r-vimentin)
# Conditions: His-Tag beads, FIG. 5
# From the text: FIG. 4 is a schematic and photograph of a IMAC Pull-down assay. The numbers 1, 2, 4, 7, 9, 11, 14, 16, 17, and 18 under the tubes correspond to aptamers consisting of SEQ ID NOs: 1, 2, 4, 7, 9, 11, 14, 16, 17, and 18, respectively. IMAC=[…]/Ni- or Metal-chelate chromatography.
# FIG. 5 is a graph showing a comparative evaluation of vimentin-binding aptamers. The numbers 1, 2, 4, 7, 9, 11, 14, 16, 17, 18, 22, and 23 under the graph correspond to aptamers consisting of SEQ ID NOs: 1, 2, 4, 7, 9, 11, 14, 16, 17, 18, 49, and 51, respectively.
# Aptamers containing VIM binding domains were allowed to associate with purified recombinant His-tagged VIM, followed by the addition of His-Tag beads, which were then used to concentrate the His-VIM and associated aptamers (see FIG. 4). Numbers below the tubes in FIG. 4 reading from left to right, top to bottom, correspond to aptamers that include SEQ ID NOs: 1, 2, 4, 7, 9, 11, 14, 16, 17, and 18, respectively.
# The comparative binding efficiency of the aptamers was evaluated by quantifying the net fluorescent signal in the presence and absence of vimentin (e.g., r-vimentin)(see FIG. 5). Numbers 1, 2, 4, 7, 9, 11, 14, 16, 17, 18, 22, and 23 below the graph correspond to aptamers that include SEQ ID NOs: 1, […], 4, 7, […], 11, 14, 16, 17, 18, 49, and 51, respectively. VIM-binding sequences from Phage Display studies were positive.
# purified recombinant His-tagged VIM, sequence (P08670 whole entry): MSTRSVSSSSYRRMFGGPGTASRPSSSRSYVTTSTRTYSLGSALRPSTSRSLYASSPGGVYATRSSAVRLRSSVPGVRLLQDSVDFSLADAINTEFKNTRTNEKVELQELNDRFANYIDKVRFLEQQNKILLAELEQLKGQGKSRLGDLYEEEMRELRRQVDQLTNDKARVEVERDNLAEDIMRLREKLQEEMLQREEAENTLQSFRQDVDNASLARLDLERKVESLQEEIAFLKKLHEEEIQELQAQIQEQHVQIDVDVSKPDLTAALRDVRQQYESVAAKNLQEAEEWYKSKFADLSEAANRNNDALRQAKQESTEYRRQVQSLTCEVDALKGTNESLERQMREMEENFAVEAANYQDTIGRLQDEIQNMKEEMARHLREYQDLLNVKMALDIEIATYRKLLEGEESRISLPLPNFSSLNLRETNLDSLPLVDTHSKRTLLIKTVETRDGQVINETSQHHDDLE
row,Substance,comparative binding efficiency (net fluorescent signal in the presence and absence of vimentin)
1,(FITC-Ahx)AGKKPRVTVTNVFLYNRPLNSTE-free acid ({FITC-Ahx}-AGKKPRVTVTNVFLYNRPLNSTE-OH; SMILES CC(C)C[C@H](NC(=O)[C@H](Cc1ccccc1)NC(=O)[C@@H](NC(=O)[C@H](CC(N)=O)NC(=O)[C@@H](NC(=O)[C@@H](NC(=O)[C@@H](NC(=O)[C@@H](NC(=O)[C@H](CCCNC(=N)N)NC(=O)[C@@H]1CCCN1C(=O)[C@H](CCCCN)NC(=O)[C@H](CCCCN)NC(=O)CNC(=O)[C@H](C)NC(=O)CCCCCNC(=S)Nc1ccc2c(c1)C(=O)OC21c2ccc(O)cc2Oc2cc(O)ccc21)C(C)C)[C@@H](C)O)C(C)C)[C@@H](C)O)C(C)C)C(=O)N[C@@H](Cc1ccc(O)cc1)C(=O)N[C@@H](CC(N)=O)C(=O)N[C@@H](CCCNC(=N)N)C(=O)N1CCC[C@H]1C(=O)N[C@@H](CC(C)C)C(=O)N[C@@H](CC(N)=O)C(=O)N[C@@H](CO)C(=O)N[C@H](C(=O)N[C@@H](CCC(=O)O)C(=O)O)[C@@H](C)O) [Aptamer #22],Strong binding
2,(FITC-Ahx)AGKKPSVTVTNVFLYNRPLNSTE-free acid ({FITC-Ahx}-AGKKPSVTVTNVFLYNRPLNSTE-OH; SMILES CC(C)C[C@H](NC(=O)[C@H](Cc1ccccc1)NC(=O)[C@@H](NC(=O)[C@H](CC(N)=O)NC(=O)[C@@H](NC(=O)[C@@H](NC(=O)[C@@H](NC(=O)[C@@H](NC(=O)[C@H](CO)NC(=O)[C@@H]1CCCN1C(=O)[C@H](CCCCN)NC(=O)[C@H](CCCCN)NC(=O)CNC(=O)[C@H](C)NC(=O)CCCCCNC(=S)Nc1ccc2c(c1)C(=O)OC21c2ccc(O)cc2Oc2cc(O)ccc21)C(C)C)[C@@H](C)O)C(C)C)[C@@H](C)O)C(C)C)C(=O)N[C@@H](Cc1ccc(O)cc1)C(=O)N[C@@H](CC(N)=O)C(=O)N[C@@H](CCCNC(=N)N)C(=O)N1CCC[C@H]1C(=O)N[C@@H](CC(C)C)C(=O)N[C@@H](CC(N)=O)C(=O)N[C@@H](CO)C(=O)N[C@H](C(=O)N[C@@H](CCC(=O)O)C(=O)O)[C@@H](C)O) [Aptamer #23],Strong binding
3,acetyl-TRKRIRIQRGPGRAFVTIGGK(FITC)-amide (Ac-TRKRIRIQRGPGRAFVTIGGK(FITC)-NH2; SMILES CC[C@H](C)[C@H](NC(=O)[C@H](CCCNC(=N)N)NC(=O)[C@@H](NC(=O)[C@H](CCCNC(=N)N)NC(=O)[C@H](CCCCN)NC(=O)[C@H](CCCNC(=N)N)NC(=O)[C@@H](NC(C)=O)[C@@H](C)O)[C@@H](C)CC)C(=O)N[C@@H](CCC(N)=O)C(=O)N[C@@H](CCCNC(=N)N)C(=O)NCC(=O)N1CCC[C@H]1C(=O)NCC(=O)N[C@@H](CCCNC(=N)N)C(=O)N[C@@H](C)C(=O)N[C@@H](Cc1ccccc1)C(=O)N[C@H](C(=O)N[C@H](C(=O)N[C@H](C(=O)NCC(=O)NCC(=O)N[C@@H](CCCCNC(=S)Nc1ccc2c(c1)C(=O)OC21c2ccc(O)cc2Oc2cc(O)ccc21)C(N)=O)[C@@H](C)CC)[C@@H](C)O)C(C)C) [Aptamer #17],Strong binding
